The values below come from patent US20070004660A1, “Synergistic Modulation of Flt3 Kinase Using Alkylquinolines and Alkylquinazolines” (priority 2005, published 2007).

In the test the target is T1, wild-type FLT3 receptor (Homo sapiens, UniProt P36888).
T1 construct: host or cells: Baf3 (murine B cell lymphoma line), stably transfected
T1 sequence (P36888 27-993): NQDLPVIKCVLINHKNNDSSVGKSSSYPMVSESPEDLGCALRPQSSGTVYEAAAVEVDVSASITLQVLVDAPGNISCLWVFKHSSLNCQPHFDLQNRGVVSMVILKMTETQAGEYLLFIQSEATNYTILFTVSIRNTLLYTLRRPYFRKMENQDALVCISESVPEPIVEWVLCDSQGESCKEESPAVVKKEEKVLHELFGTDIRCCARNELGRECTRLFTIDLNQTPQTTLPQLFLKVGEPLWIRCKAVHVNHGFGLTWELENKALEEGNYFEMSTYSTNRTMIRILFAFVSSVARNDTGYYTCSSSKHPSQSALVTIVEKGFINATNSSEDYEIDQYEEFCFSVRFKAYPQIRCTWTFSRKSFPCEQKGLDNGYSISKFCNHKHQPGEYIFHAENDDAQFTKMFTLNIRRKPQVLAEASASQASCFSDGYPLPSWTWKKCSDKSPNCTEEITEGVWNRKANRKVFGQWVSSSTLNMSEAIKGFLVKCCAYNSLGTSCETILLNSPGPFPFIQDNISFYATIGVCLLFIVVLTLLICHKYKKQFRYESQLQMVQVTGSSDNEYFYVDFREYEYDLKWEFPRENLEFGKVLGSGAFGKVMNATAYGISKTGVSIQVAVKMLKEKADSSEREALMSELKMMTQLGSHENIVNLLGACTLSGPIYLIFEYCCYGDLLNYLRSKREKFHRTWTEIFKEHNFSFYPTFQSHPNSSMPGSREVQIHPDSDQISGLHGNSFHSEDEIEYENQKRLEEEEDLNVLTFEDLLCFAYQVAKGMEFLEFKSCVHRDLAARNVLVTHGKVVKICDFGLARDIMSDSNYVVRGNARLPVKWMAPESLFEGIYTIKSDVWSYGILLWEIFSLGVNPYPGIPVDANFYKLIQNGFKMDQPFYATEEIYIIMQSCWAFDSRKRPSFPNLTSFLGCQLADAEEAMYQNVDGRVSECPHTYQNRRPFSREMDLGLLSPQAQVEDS
The experiment in a line: Cell-based FLT3 receptor ELISA (FLT ligand-induced phosphorylation in Baf3 FLT3 cells). To be noted: 100 ng/mL Flt ligand, uncertainty ±20%. In a few lines:
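Receptor phosphotyrosine measured by sandwich ELISA (anti-FLT3 capture, HRP anti-pTyr, luminescence) in FLT3-transfected murine Baf3 cells given 1 h compound pretreatment and 10 min 100 ng/mL FLT ligand after overnight low-serum starvation; triplicates, IC50 from nonlinear regression.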

Structures are written as SMILES. A value given as a limit tells only on which side of the number the result lay.

In general, IC50 refers to the point on the concentration scale where inhibition reaches its midpoint. Read a low IC50 as higher potency. Compound `O=C1CCCN1CCOc1cc2ncnc(C3CCN(C(=O)Nc4ccc(N5CCCC5)cc4)CC3)c2cc1F` [Compound 206, 4-{6-Fluoro-7-[2-(2-oxo-pyrrolidin-1-yl)-ethoxy]-quinazolin-4-yl}-piperidine-1-carboxylic acid (4-pyrrolidin-1-yl-phenyl)-amide] returned an IC50 of 22 nM. For the compound `COc1cc2c(C3CCN(C(=O)Nc4ccc(N5CCOCC5)cc4)CC3)ncnc2cc1OCCCN1CCN(C)CC1` [Compound 207, 4-{6-Methoxy-7-[3-(4-methyl-piperazin-1-yl)-propoxy]-quinazolin-4-yl}-piperidine-1-carboxylic acid (4-morpholin-4-yl-phenyl)-amide], half-maximal inhibition (IC50) was put at 42 nM. Compared with the last compound, the IC50 is about 1.9-fold higher. For `COc1cc2c(C3CCN(C(=O)Nc4ccc(N5CCCC5)cc4)CC3)ncnc2cc1OCCN1CCCC1=O` [Compound 209, 4-{6-Methoxy-7-[2-(2-oxo-pyrrolidin-1-yl)-ethoxy]-quinazolin-4-yl}-piperidine-1-carboxylic acid (4-pyrrolidin-1-yl-phenyl)-amide] the value was 37 nM; for `O=C(Nc1ccc(N2CCCC2)cc1)N1CCC(c2ncnc3cc(N4CCOCC4)c(F)cc23)CC1` [Compound 210, 4-(6-Fluoro-7-morpholin-4-yl-quinazolin-4-yl)-piperidine-1-carboxylic acid (4-pyrrolidin-1-yl-phenyl)-amide], 25 nM. For `COc1cc2c(C3CCN(C(=O)Nc4ccc(N5CCCC5)cc4)CC3)ncnc2cc1N1CCOCC1` [Compound 211, 4-(6-Methoxy-7-morpholin-4-yl-quinazolin-4-yl)-piperidine-1-carboxylic acid (4-pyrrolidin-1-yl-phenyl)-amide] the value was 1 nM; for `COc1cc2c(C3CCN(C(=O)Nc4ccc(N5CCOCC5)cc4)CC3)ncnc2cc1N1CCOCC1` [Compound 212, 4-(6-Methoxy-7-morpholin-4-yl-quinazolin-4-yl)-piperidine-1-carboxylic acid (4-morpholin-4-yl-phenyl)-amide], 93 nM.

In the case of `COc1cc2ncnc(C3CCN(C(=O)Nc4ccc(I)cc4)CC3)c2cc1OC` [Example 2, 4-(6,7-Dimethoxy-quinazolin-4-yl)-piperidine-1-carboxylic acid (4-iodo-phenyl)-amide], the IC50 was determined as 890 nM. For `COc1cc2ncnc(C3CCN(C(=O)Nc4ccc(-n5ccnc5)cc4)CC3)c2cc1OC` [Example 3, 4-(6,7-Dimethoxy-quinazolin-4-yl)-piperidine-1-carboxylic acid (4-imidazol-1-yl-phenyl)-amide] the value was 938 nM; for `COc1cc2ncnc(C3CCN(C(=O)Nc4ccc(NC(C)=O)cc4)CC3)c2cc1OC` [Example 25, 4-(6,7-Dimethoxy-quinazolin-4-yl)-piperidine-1-carboxylic acid (4-acetylamino-phenyl)-amide], above 10000 nM; for `COc1cc2ncnc(C3CCN(C(=O)Nc4ccc(N(C)C)cc4)CC3)c2cc1OC` [Example 26, 4-(6,7-Dimethoxy-quinazolin-4-yl)-piperidine-1-carboxylic acid (4-dimethylamino-phenyl)-amide], 109 nM. The figure for `COc1cc2ncnc(C3CCN(C(=O)Cc4ccc(C(C)C)cc4)CC3)c2cc1OC` [Example 28, 1-[4-(6,7-Dimethoxy-quinazolin-4-yl)-piperidin-1-yl]-2-(4-isopropyl-phenyl)-ethanone] is 2 nM. The figure for `CC(C)Oc1ccc(NC(=O)N2CCC(c3ncnc4cc(Cl)ccc34)CC2)cc1` [Example 29, 4-(7-Chloro-quinazolin-4-yl)-piperidine-1-carboxylic acid (4-isopropoxy-phenyl)-amide] is 50 nM; for `CC(C)c1ccc(NC(=O)N2CCC(c3ncnc4cc(Cl)ccc34)CC2)cc1` [Example 30, 4-(7-Chloro-quinazolin-4-yl)-piperidine-1-carboxylic acid (4-isopropyl-phenyl)-amide] it is 83 nM.

In turn, `COc1ccc2c(C3CCN(C(=O)Nc4ccc(OC(C)C)cc4)CC3)ncnc2c1` [Example 31, 4-(7-Methoxy-quinazolin-4-yl)-piperidine-1-carboxylic acid (4-isopropoxy-phenyl)-amide] came in with a 50% inhibitory concentration (IC50) of 55 nM. This IC50 is about 1.5-fold lower than that of the compound before. The figure for `COc1ccc2c(C3CCN(C(=O)Nc4ccc(C(C)C)cc4)CC3)ncnc2c1` [Example 32, 4-(7-Methoxy-quinazolin-4-yl)-piperidine-1-carboxylic acid (4-isopropyl-phenyl)-amide] is 35 nM; for `CC(C)Oc1ccc(NC(=O)N2CCC(c3ncnc4cc(OCCCN5CCCCC5)ccc34)CC2)cc1` [Example 33, 4-(7-(3-Piperidin-1-yl-propoxy)-quinazolin-4-yl)-piperidine-1-carboxylic acid (4-isopropoxy-phenyl)-amide] it is 11 nM.

As for `CC(C)Oc1ccc(NC(=O)N2CCC(c3ncnc4cc(OCCN5CCCCC5)ccc34)CC2)cc1` [Example 34, 4-(7-(2-Piperindin-1-yl-ethoxy)-quinazolin-4-yl)-piperidine-1-carboxylic acid (4-isopropoxy-phenyl)-amide], the IC50 was found to be 79 nM. In turn, `CCN(CC)CCOc1ccc2c(C3CCN(C(=O)Nc4ccc(OC(C)C)cc4)CC3)ncnc2c1` [Example 35, 4-[7-(2-Diethylamino-ethoxy)-quinazolin-4-yl)-piperidine-1-carboxylic acid (4-isopropoxy-phenyl)-amide] registered a concentration for half-maximal inhibition (IC50) of 60 nM. For `CCN(CC)CCCOc1ccc2c(C3CCN(C(=O)Nc4ccc(OC(C)C)cc4)CC3)ncnc2c1` [Example 36, 4-[7-(3-Diethylamino-propoxy)-quinazolin-4-yl)-piperidine-1-carboxylic acid (4-isopropoxy-phenyl)-amide] the value was 18 nM. `CC(C)Oc1ccc(NC(=O)N2CCC(c3ncnc4cc(OCCN5CCOCC5)ccc34)CC2)cc1` [Example 37] came in with an IC50 of 51 nM.

In turn, `CC(C)Oc1ccc(NC(=O)N2CCC(c3ncnc4cc(OCCCN5CCOCC5)ccc34)CC2)cc1` [Example 38] yielded an IC50 of 15 nM. The figure for `CC(C)Oc1ccc(NC(=O)N2CCC(c3ncnc4cc(OCCCN5CCN(C)CC5)ccc34)CC2)cc1` [Example 39] is 8 nM; for `COCCOc1ccc(NC(=O)N2CCC(c3ncnc4cc(OC)c(OC)cc34)CC2)cc1` [Example 40, 4-(6,7-Dimethoxy-quinazolin-4-yl)-piperidine-1-carboxylic acid [4-(2-methoxy-ethoxy)-phenyl]-amide] it is 1500 nM.
